10 compounds from ChEMBL document CHEMBL1201862, “PubChem BioAssay data set” (2004) can be followed below.

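Test compounds were applied to cells in 96-well plates for 48 hours at 5 doses. GI50 marks 50% less growth.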 Calls of active or inactive are those of the source. Rule as the data show it: active = GI50 up to about 1.1 µM and inactive = higher.

Among the test systems are ACHN; EKVX; NCI-H460; TK-10; SNB-75; IGROV-1; MDA-MB-231; MOLT-4; A549; HCT-15; NCI-H226; RPMI-8226; SK-MEL-5; Malme-3M; UACC-62; UO-31; RXF 393; SF-295; U-251; SK-MEL-28.
What all share (assay): NCI anticancer screen, dose series, 48 h

Regarding `CC(=O)OCC(C)C1=C(O)C(=O)C2(C)C/C=C(/C)CC/C=C(\C)CCC(O)C(C)CCC12` (stereo not given), the GI50 with ACHN was 16.7 µM (inactive); in the experiment with EKVX, 16.4 µM (inactive); with NCI-H460 it was 14.7 µM (inactive); in the experiment with TK-10 it was 19.6 µM (inactive); in the experiment on SNB-75 it was 16.2 µM (inactive); in the experiment with IGROV-1, 15.2 µM (inactive). Moreover, the GI50 in the experiment on MDA-MB-231 is 16.3 µM (inactive); with MOLT-4, 10 µM (inactive); in the experiment on A549 it was 18 µM (inactive); with HCT-15, 17.6 µM; with NCI-H226, 17.6 µM (inactive); with RPMI-8226 it was 11.9 µM (inactive). Also, the GI50 in the experiment with SK-MEL-5 was 17.7 µM (inactive); with Malme-3M it was 17.4 µM (inactive); with UACC-62, 18.8 µM (inactive); in the experiment with UO-31 it was 14.2 µM (inactive); in the experiment with RXF 393, 12.3 µM (inactive); with SF-295, 15.6 µM (inactive). For the same compound, the GI50 in the experiment on U-251 is 17 µM (inactive); in the experiment with SK-MEL-28, 16.7 µM (inactive).

For `CCOC(=O)c1c(C)n(Cc2ccc(Cl)cc2Cl)c2c1cc(O)c1[nH]c3c(c12)CCCC3`, the GI50 in the experiment with ACHN was 25.6 µM (inactive); in the experiment on EKVX it was 34.6 µM (inactive); in the experiment on NCI-H460, 28.3 µM (inactive); in the experiment with TK-10, 24.5 µM (inactive); with SNB-75 it was 23.3 µM (inactive); with IGROV-1 it was 24.9 µM (inactive). Further, the GI50 in the experiment on MDA-MB-231 was 34.2 µM (inactive); with MOLT-4, < 0.01 µM (active); in the experiment with A549, 52 µM (inactive); in the experiment on HCT-15 it was 41.7 µM; in the experiment on NCI-H226, 23.6 µM (inactive); in the experiment on RPMI-8226, 16.6 µM (inactive). Also, the GI50 with SK-MEL-5 is 20.5 µM (inactive); with Malme-3M it was 20.6 µM (inactive); in the experiment with UACC-62, 22.5 µM (inactive); in the experiment with UO-31 it was 20.7 µM (inactive); with RXF 393, 18.5 µM (inactive); in the experiment on SF-295, 29.3 µM (inactive). The GI50 is 37.8 µM (inactive) in the experiment on U-251 and 22.1 µM (inactive) with SK-MEL-28.

As for `COc1cc(OC)c2c(c1)OC(c1ccccc1)CC2=O` (stereo not given) [DIMETHYLPINOCEMBRIN], the GI50 in the experiment on ACHN, with EKVX, in the experiment with NCI-H460, in the experiment with TK-10, in the experiment with SNB-75 and with IGROV-1 was > 10 µM (inactive) each time. The GI50 in the experiment on MDA-MB-231 was > 10 µM (inactive); in the experiment with MOLT-4, > 10 µM (inactive); in the experiment on A549, > 10 µM (inactive); with HCT-15, more than 10 µM; in the experiment with NCI-H226, > 10 µM (inactive); in the experiment on RPMI-8226, > 10 µM (inactive). Also, the GI50 with SK-MEL-5, in the experiment with Malme-3M, in the experiment with UACC-62, with UO-31, with RXF 393 and in the experiment on SF-295 was > 10 µM (inactive) throughout. Moreover, the GI50 with U-251 and in the experiment with SK-MEL-28 was > 10 µM (inactive) throughout.

As to `c1ccc(C(NCC2CCO2)(c2ccccc2)c2ccccc2)cc1` (stereo not given), the GI50 in the experiment with ACHN is 15.7 µM (inactive); in the experiment with EKVX it was 16.2 µM (inactive); with NCI-H460, 16.4 µM (inactive); in the experiment with TK-10, 13.8 µM (inactive); in the experiment on SNB-75, 15.2 µM (inactive); in the experiment with IGROV-1, 15.2 µM (inactive). The GI50 in the experiment on MDA-MB-231 is 28.3 µM (inactive); in the experiment on MOLT-4, 30.2 µM (inactive); in the experiment with A549 it was 15.2 µM (inactive); in the experiment on HCT-15 it was 16.4 µM; in the experiment with NCI-H226, 11.3 µM (inactive); in the experiment on RPMI-8226, 30.5 µM (inactive). The GI50 with SK-MEL-5 was 25.6 µM (inactive); with Malme-3M, 18.7 µM (inactive); in the experiment with UACC-62 it was 14.7 µM (inactive); in the experiment with UO-31, 12.8 µM (inactive); in the experiment with RXF 393 it was 18.2 µM (inactive); in the experiment on SF-295 it was 15.1 µM (inactive). Moreover, the GI50 in the experiment with U-251 was 23 µM (inactive); in the experiment on SK-MEL-28, 28.6 µM (inactive).

With `O=C1C=C(Cl)C(=O)C(c2ccc(Cl)cc2)=C1`, the GI50 in the experiment with ACHN was 16.7 µM (inactive); in the experiment on EKVX it was 14.8 µM (inactive); with NCI-H460 it was 79.6 µM (inactive); in the experiment with TK-10 it was 21.2 µM (inactive); in the experiment with SNB-75, 22.5 µM (inactive); with IGROV-1, 15 µM (inactive). In addition, the GI50 was 17.1 µM (inactive) in the experiment on MDA-MB-231; 4.03 µM (inactive) with MOLT-4; 46.6 µM (inactive) with A549; 18.8 µM in the experiment with HCT-15; 20.2 µM (inactive) in the experiment with NCI-H226; 12.1 µM (inactive) in the experiment on RPMI-8226. The GI50 in the experiment on SK-MEL-5 was 16.5 µM (inactive); with Malme-3M, 20.3 µM (inactive); in the experiment on UACC-62, 17.4 µM (inactive); in the experiment with UO-31, 14.8 µM (inactive); with RXF 393, 18.4 µM (inactive); with SF-295, 45.6 µM (inactive). For the same compound, the GI50 in the experiment with U-251 is 15.2 µM (inactive); with SK-MEL-28 it was 20.2 µM (inactive).

Regarding `CSC1=C(C(=O)N(COCC[Si](C)(C)C)c2ccccc2Br)CCC(C(C)(C)C)C1` (stereo not given), the GI50 in the experiment with ACHN is 16.4 µM (inactive); with EKVX, 13.8 µM (inactive); in the experiment with NCI-H460, 13.6 µM (inactive); in the experiment with TK-10 it was 23.5 µM (inactive); in the experiment with SNB-75 it was 20.6 µM (inactive); with IGROV-1 it was 23.2 µM (inactive). Moreover, the GI50 was 10.3 µM (inactive) in the experiment with MDA-MB-231; 5.87 µM (inactive) in the experiment with MOLT-4; 17 µM (inactive) in the experiment with A549; 11.7 µM with HCT-15; 13.9 µM (inactive) in the experiment with NCI-H226; 10.6 µM (inactive) in the experiment with RPMI-8226. Besides, the GI50 in the experiment with SK-MEL-5 was 12.8 µM (inactive); with Malme-3M, 16.6 µM (inactive); in the experiment with UACC-62, 10.9 µM (inactive); with UO-31, 12.6 µM (inactive); with RXF 393, 9.79 µM (inactive); in the experiment on SF-295, 9.64 µM (inactive). Besides, the GI50 in the experiment with U-251 is 11.6 µM (inactive); in the experiment with SK-MEL-28, 25.8 µM (inactive).

As to `CC1=NN(c2cccc(S(=O)(=O)O)c2)C2(C1)C(Cl)C(=O)N2c1nc2ccccc2s1` (stereo not given), the GI50 was 6.81 µM (inactive) in the experiment with ACHN; 8.53 µM (inactive) in the experiment with EKVX; 9.62 µM (inactive) with NCI-H460; 14.2 µM (inactive) with TK-10; 4.05 µM (inactive) in the experiment on SNB-75; 1.66 µM (inactive) with IGROV-1. The GI50 in the experiment on MDA-MB-231 was 8.73 µM (inactive); in the experiment on MOLT-4, 2.88 µM (inactive); with A549, 8.61 µM (inactive); with HCT-15, 4.04 µM; in the experiment with NCI-H226, 5.82 µM (inactive); in the experiment with RPMI-8226, 1.83 µM (inactive). Besides, the GI50 was 6.17 µM (inactive) in the experiment on SK-MEL-5; 5.83 µM (inactive) with Malme-3M; 6.81 µM (inactive) in the experiment with UACC-62; 3.55 µM (inactive) in the experiment with UO-31; 8.28 µM (inactive) with RXF 393; 13.8 µM (inactive) in the experiment on SF-295. Moreover, the values for the GI50 with U-251 and in the experiment with SK-MEL-28 were 5.85 µM (inactive) and 15.7 µM (inactive), respectively.

For the compound `COc1cc2nc(-c3c(F)cccc3F)n(Cc3c(F)cccc3F)c2cc1Cc1c(F)cccc1F`, the GI50 was > 42.6 µM (inactive) with ACHN; 16.9 µM (inactive) with EKVX; 15.3 µM (inactive) with NCI-H460; > 100 µM (inactive) in the experiment with TK-10; 2.74 µM (inactive) in the experiment with SNB-75; 0.292 µM (active) in the experiment on IGROV-1. In addition, the GI50 with MDA-MB-231 was 27.7 µM (inactive); with MOLT-4, 6.84 µM (inactive); in the experiment with A549, > 47.8 µM (inactive); in the experiment on HCT-15, more than 100 µM; in the experiment on NCI-H226, > 28.6 µM (inactive); with RPMI-8226, 7.71 µM (inactive). In addition, the GI50 in the experiment with SK-MEL-5 is 6.28 µM (inactive); in the experiment on Malme-3M it was > 24.8 µM (inactive); in the experiment on UACC-62 it was 2.64 µM (inactive); with UO-31, 9.1 µM (inactive); in the experiment with RXF 393 it was 1.55 µM (inactive); in the experiment with SF-295, > 100 µM (inactive). For the same compound, the figures for the GI50 with U-251 and in the experiment on SK-MEL-28 were > 100 µM (inactive) and 0.35 µM (active), respectively.

Consider `CC(C)(CN1CCCCC1)C(/C=C/c1ccc(Cl)c(Cl)c1)=N\NC(=O)N/N=C(/C=C/c1ccc(Cl)c(Cl)c1)C(C)(C)CN1CCCCC1`, for which the GI50 in the experiment on ACHN is 1.89 µM (inactive); in the experiment on EKVX, 1.64 µM (inactive); in the experiment on NCI-H460, 1.35 µM (inactive); in the experiment on TK-10, 1.66 µM (inactive); in the experiment on SNB-75, 1.55 µM (inactive); with IGROV-1 it was 1.77 µM (inactive). Further, the GI50 in the experiment on MDA-MB-231 was 2.06 µM (inactive); with MOLT-4, 2.62 µM (inactive); in the experiment on A549 it was 1.86 µM (inactive); in the experiment with HCT-15, 1.08 µM; in the experiment on NCI-H226 it was 2.3 µM (inactive); in the experiment with RPMI-8226 it was 1.42 µM (inactive). The GI50 in the experiment on SK-MEL-5 is 1.99 µM (inactive); with Malme-3M, 1.55 µM (inactive); in the experiment with UACC-62 it was 1.95 µM (inactive); with UO-31, 4.14 µM (inactive); with RXF 393, 0.659 µM (active); in the experiment with SF-295 it was 1.71 µM (inactive). For the same compound, the values for the GI50 in the experiment on U-251 and with SK-MEL-28 were 1.69 µM (inactive) and 1.72 µM (inactive), respectively.

`C[C@H](CCC1=NCCN1)[C@H]1CC[C@H]2[C@@H]3CC[C@@H]4C[C@H](O)CC[C@]4(C)[C@H]3CC[C@]12C`: the GI50 with ACHN is 7.91 µM (inactive); in the experiment on EKVX it was 13.3 µM (inactive); in the experiment with NCI-H460, 2.91 µM (inactive); with TK-10, 7.74 µM (inactive); with SNB-75 it was 5.07 µM (inactive); in the experiment with IGROV-1, 8.28 µM (inactive). The GI50 is 5.78 µM (inactive) with MDA-MB-231; 2.7 µM (inactive) in the experiment with MOLT-4; 8 µM (inactive) in the experiment on A549; 18.5 µM with HCT-15; 7.46 µM (inactive) in the experiment on NCI-H226; 3.13 µM (inactive) in the experiment with RPMI-8226. Besides, the GI50 is 1.63 µM (inactive) with SK-MEL-5; 2.44 µM (inactive) in the experiment with Malme-3M; 2.07 µM (inactive) with UACC-62; 14.2 µM (inactive) in the experiment with UO-31; 12.2 µM (inactive) in the experiment on RXF 393; 3.4 µM (inactive) in the experiment on SF-295. The GI50 was 6.05 µM (inactive) in the experiment on U-251 and 2.08 µM (inactive) in the experiment on SK-MEL-28.
